Data published in patent US7553667B2, “Regulation of gene expression using chromatin remodelling factors” (Her Majesty the Queen in right of Canada as represented by …, priority 2002, dated 2009).

Assays:
[1] = tested on: auxin-inducible GUS expression; conditions: seedlings, up to 1 mM for 24 h; cited from earlier work
BnSCL1 gene expression = experiment: Quantitative one-step RT-PCR of BnSCL1 expression in treated seedlings; format: in vivo, Brassica napus; conditions: 10 mM for 24 h, then 2,4-D 10^-6 to 10^3 μM
Method: In exogenous applied auxin treatments, four-leaf stage seedlings grown at 20° C. were treated with a foliar spray containing 1 mM 2,4-D and 50 mM sodium phosphate, pH 7.5. The four leaves were collected at 30 min, 60 min and 180 min after the first foliar application of 2,4-D. For the measurement of response of shoots and roots to auxin, sterilized seeds were germinated on plates in a growth chamber with continuous light at 20° C., and 10 dpg seedlings were supplied with varied concentration of 2,4-D. In the auxin transport inhibition experiments, 9 dpg seedlings were incubated in the medium supplemented with 50 μM NPA dissolved in 0.1% DMSO for 24 h before the 2,4-D treatment. For the HDAC inhibitor treatments, 10 mM sodium butyrate was added onto the growth medium and incubated for 24 h followed by exogenous 2,4-D application at varied concentrations.
Total RNA extracted as described above was treated with Amplification Grade Deoxyribonuclease I (GibcoL BRL) following the manufacture's instructions. The RNA samples were then directly used for reverse transcription prior to amplification without purification. The RT-PCR was quantitatively performed and completed in a one-step reaction using […] One-Step RT-PCR System (GibcoL BRL) as described by Gao et al. (2002). Gene-specific sense and anti-sense primers used to generate a 960 bp fragment of Brassica napus Actin, as an internal standard, were as described in Gao et al., (2002). Gene-specific primers for the generation of BnSCL1, BnIAA1 and BnIAA12 fragments were as follows: […]

## CCCC(=O)[O-].[Na+] [sodium butyrate]
[1]
  effect on auxin-inducible GUS expression: no effect
BnSCL1 gene expression
  BnSCL1 expression profile in shoots and roots in response to auxin after HDAC inhibition: upregulated by auxin at concentration of 1 pM and downregulated by auxin at higher concentrations
